Literature values, collected in article PMC11272821, “Mechanistic safety assessment via multi-omic characterisation of systemic pathway perturbations following in vivo MAT2A inhibition” (Archives of Toxicology, 2024).

Design: method as in Agios Pharmaceuticals, AACR-NCI-EORTC 2019
Settings: ref Agios Pharmaceuticals, AACR-NCI-EORTC 2019, cited from earlier work

COc1ccc(-c2c(Nc3ccccn3)[nH]c3c(C4=CCCCC4)c(-c4ccccc4)nn3c2=O)cc1 [AG-270]
adverse finding in Phase 1 clinical trial (proposed result of UGT1A1 inhibition): hyperbilirubinemia | dose limiting toxicity in Phase 1 clinical trial: reversible, acute liver injury
